{"source": "patent US20250360235A1", "about": "“RADI[…] AND METHOD FOR RADIOLABELLING” (Telix Innovations SA, priority 2024, published 2025)", "experiment": "Radiochemical purity by HPLC over time after radiolabelling", "assay_type": "physicochemical", "protocol": "Table 1 to Table 5 show the results of various radiolabelling experiments on radiochemical purity and the chelation yield. The radiolabelling experiments in the tables are carried out as described in: • Example 1 for when the gallium-68 source is GE Liquid target generator and EZAG GalliaPharm generator; • Example 2 for when the gallium-68 source is IRE Galli Eo generator; • Example 3 for when the gallium-68 source is GE solid target generator;\nHowever, the experiments were carried out with the amount of ascorbic acid as indicated in the Tables 1 to 5, and the activity as indicated in the Tables 1 to 5. Radiochemical purities were measured at various times (T0, T1, T4, T6) after the radiolabelled experiments have been conducted.\nThe kits of Example 1, Example 2 or Example 3, with amounts of ascorbic acid as set out in Table 7 were used in the experiments for the ascorbic acid bracketing matrix. Three strengths of [^68Ga]Ga-PSMA-11 will be tested, i.e. 50 mCi/ml, 7 mCi/ml and 1 mCi/ml. Radiochemical purity was determined at different time points (TO, T1, T4 or T6), as set out in Table 7.", "data": [{"smiles": "O=C([O-])CN(CCN(CC(=O)[O-])Cc1cc(CCC(=O)NCCCCCC(=O)NCCCC[C@H](NC(=O)N[C@@H](CCC(=O)O)C(=O)O)C(=O)O)ccc1[O-])Cc1cc(CCC(=O)O)ccc1[O-].[68Ga+3].[OH3+]", "note": "[[^68Ga]PSMA-11, gallium-68 radiolabelled Glu-urea-Lys-HBED-CC (gozetotide or PSMA-11)]", "values": [{"measurement": "Radiochemical Purity (HPLC) Ga-68 PSMA-11 (%)", "setting": "2.5 mg ascorbic acid, 49.9-76.9 mCi, 6.31-9.72 mCi/mL, GE Liquid target, n=3, T4 (4 h)", "value": "C (C = conforms to specifications)"}, {"measurement": "Radiochemical Purity (HPLC) Ga-68 PSMA-11 (%)", "setting": "5 mg ascorbic acid, 60-69.9 mCi, 7.61-8.81 mCi/mL, 3 × GE Liquid Target, 3 × EZAG GalliaPharm, average of 6, T0", "value": 100, "unit": "%"}, {"measurement": "Radiochemical Purity (HPLC) Ga-68 PSMA-11 (%)", "setting": "5 mg ascorbic acid, 60-69.9 mCi, 7.61-8.81 mCi/mL, 3 × GE Liquid Target, 3 × EZAG GalliaPharm, average of 6, T4 (4 h)", "value": 100, "unit": "%"}, {"measurement": "Radiochemical Purity (HPLC) Ga-68 PSMA-11 (%)", "setting": "5 mg ascorbic acid, 60-69.9 mCi, 7.61-8.81 mCi/mL, 3 × GE Liquid Target, 3 × EZAG GalliaPharm, n=6, T0", "value": "C (C = conforms to specifications)"}, {"measurement": "Radiochemical Purity (HPLC) Ga-68 PSMA-11 (%)", "setting": "5 mg ascorbic acid, 60-69.9 mCi, 7.61-8.81 mCi/mL, 3 × GE Liquid Target, 3 × EZAG GalliaPharm, n=6, T4 (4 h)", "value": "C (C = conforms to specifications)"}, {"measurement": "Radiochemical Purity (HPLC) Ga-68 PSMA-11 (%)", "setting": "10 mg ascorbic acid, 514-520 mCi, 49.0-66.1 mCi/mL, GE Solid Target, average of 3, T0", "value": 100, "unit": "%"}, {"measurement": "Radiochemical Purity (HPLC) Ga-68 PSMA-11 (%)", "setting": "10 mg ascorbic acid, 514-520 mCi, 49.0-66.1 mCi/mL, GE Solid Target, average of 3, T6 (6 h)", "value": 100, "unit": "%"}, {"measurement": "Radiochemical Purity (HPLC) Ga-68 PSMA-11 (%)", "setting": "10 mg ascorbic acid, 514-520 mCi, 49.0-66.1 mCi/mL, GE Solid Target, n=3, T0", "value": "C (C = conforms to specifications)"}, {"measurement": "Radiochemical Purity (HPLC) Ga-68 PSMA-11 (%)", "setting": "10 mg ascorbic acid, 514-520 mCi, 49.0-66.1 mCi/mL, GE Solid Target, n=3, T6 (6 h)", "value": "C (C = conforms to specifications)"}, {"measurement": "Radiochemical Purity (HPLC) Ga-68 PSMA-11 (%)", "setting": "15 mg ascorbic acid, 10.0-18.4 mCi, 0.95-1.77 mCi/mL, 1 × EZAG GalliaPharm, 2 × IRE Galli Eo, average of 3, T0", "value": 100, "unit": "%"}, {"measurement": "Radiochemical Purity (HPLC) Ga-68 PSMA-11 (%)", "setting": "15 mg ascorbic acid, 10.0-18.4 mCi, 0.95-1.77 mCi/mL, 1 × EZAG GalliaPharm, 2 × IRE Galli Eo, average of 3, T1 (1 h)", "value": 100, "unit": "%"}, {"measurement": "Radiochemical Purity (HPLC) Ga-68 PSMA-11 (%)", "setting": "15 mg ascorbic acid, 10.0-18.4 mCi, 0.95-1.77 mCi/mL, 1 × EZAG GalliaPharm, 2 × IRE Galli Eo, n=3, T0", "value": "C (C = conforms to specifications)"}, {"measurement": "Radiochemical Purity (HPLC) Ga-68 PSMA-11 (%)", "setting": "15 mg ascorbic acid, 10.0-18.4 mCi, 0.95-1.77 mCi/mL, 1 × EZAG GalliaPharm, 2 × IRE Galli Eo, n=3, T1 (1 h)", "value": "C (C = conforms to specifications)"}, {"measurement": "Radiochemical Purity (HPLC) Ga-68 PSMA-11 (%)", "setting": "15 mg ascorbic acid, 23.7-47.6 mCi, 2.26-4.53 mCi/mL, 1 × EZAG GalliaPharm, 2 × IRE Galli Eo, average of 3, T0", "value": 100, "unit": "%"}, {"measurement": "Radiochemical Purity (HPLC) Ga-68 PSMA-11 (%)", "setting": "15 mg ascorbic acid, 23.7-47.6 mCi, 2.26-4.53 mCi/mL, 1 × EZAG GalliaPharm, 2 × IRE Galli Eo, average of 3, T4 (4 h)", "value": 100, "unit": "%"}, {"measurement": "Radiochemical Purity (HPLC) Ga-68 PSMA-11 (%)", "setting": "15 mg ascorbic acid, 23.7-47.6 mCi, 2.26-4.53 mCi/mL, 1 × EZAG GalliaPharm, 2 × IRE Galli Eo, n=3, T0", "value": "C (C = conforms to specifications)"}, {"measurement": "Radiochemical Purity (HPLC) Ga-68 PSMA-11 (%)", "setting": "15 mg ascorbic acid, 23.7-47.6 mCi, 2.26-4.53 mCi/mL, 1 × EZAG GalliaPharm, 2 × IRE Galli Eo, n=3, T4 (4 h)", "value": "C (C = conforms to specifications)"}, {"measurement": "Radiochemical Purity (HPLC) Ga-68 PSMA-11 (%)", "setting": "20 mg ascorbic acid, 514-544 mCi, 48.3-51.9 mCi/mL, GE Solid Target, average of 2, T0", "value": 100, "unit": "%"}, {"measurement": "Radiochemical Purity (HPLC) Ga-68 PSMA-11 (%)", "setting": "20 mg ascorbic acid, 514-544 mCi, 48.3-51.9 mCi/mL, GE Solid Target, average of 2, T6 (6 h)", "value": 100, "unit": "%"}, {"measurement": "Radiochemical Purity (HPLC) Ga-68 PSMA-11 (%)", "setting": "20 mg ascorbic acid, 514-544 mCi, 48.3-51.9 mCi/mL, GE Solid Target, n=2, T0", "value": "C (C = conforms to specifications)"}, {"measurement": "Radiochemical Purity (HPLC) Ga-68 PSMA-11 (%)", "setting": "20 mg ascorbic acid, 514-544 mCi, 48.3-51.9 mCi/mL, GE Solid Target, n=2, T6 (6 h)", "value": "C (C = conforms to specifications)"}, {"measurement": "Radiochemical Purity (HPLC) Ga-68 PSMA-11 (%)", "setting": "25 mg ascorbic acid, 19.5-20.0 mCi, 1.85-1.90 mCi/mL, EZAG GalliaPharm, average of 2, T0", "value": 100, "unit": "%"}, {"measurement": "Radiochemical Purity (HPLC) Ga-68 PSMA-11 (%)", "setting": "25 mg ascorbic acid, 19.5-20.0 mCi, 1.85-1.90 mCi/mL, EZAG GalliaPharm, average of 2, T1 (1 h)", "value": 100, "unit": "%"}, {"measurement": "Radiochemical Purity (HPLC) Ga-68 PSMA-11 (%)", "setting": "25 mg ascorbic acid, 19.5-20.0 mCi, 1.85-1.90 mCi/mL, EZAG GalliaPharm, n=2, T0", "value": "C (C = all results conform to specifications)"}, {"measurement": "Radiochemical Purity (HPLC) Ga-68 PSMA-11 (%)", "setting": "25 mg ascorbic acid, 19.5-20.0 mCi, 1.85-1.90 mCi/mL, EZAG GalliaPharm, n=2, T1 (1 h)", "value": "C (C = all results conform to specifications)"}, {"measurement": "Radiochemical Purity (HPLC) Ga-68 PSMA-11 (%)", "setting": "25 mg ascorbic acid, 23.3-24 mCi, 2.22-2.28 mCi/mL, IRE Galli Eo, average of 2, T0", "value": 100, "unit": "%"}, {"measurement": "Radiochemical Purity (HPLC) Ga-68 PSMA-11 (%)", "setting": "25 mg ascorbic acid, 23.3-24 mCi, 2.22-2.28 mCi/mL, IRE Galli Eo, average of 2, T4 (4 h)", "value": 100, "unit": "%"}, {"measurement": "Radiochemical Purity (HPLC) Ga-68 PSMA-11 (%)", "setting": "25 mg ascorbic acid, 23.3-24 mCi, 2.22-2.28 mCi/mL, IRE Galli Eo, n=2, T0", "value": "C (C = all results conform to specifications)"}, {"measurement": "Radiochemical Purity (HPLC) Ga-68 PSMA-11 (%)", "setting": "25 mg ascorbic acid, 23.3-24 mCi, 2.22-2.28 mCi/mL, IRE Galli Eo, n=2, T4 (4 h)", "value": "C (C = all results conform to specifications)"}, {"measurement": "Radiochemical Purity (HPLC) Ga-68 PSMA-11 (%)", "setting": "25 mg ascorbic acid, 46.0-46.1 mCi, 4.38-4.39 mCi/mL, EZAG GalliaPharm, average of 2, T0", "value": 100, "unit": "%"}]}]}
